In ChEMBL document CHEMBL1142022, “Synthesis and evaluation of diverse analogs of amygdalin as potential peptidomimetics of peptide T” (Bioorg Med Chem Lett, 2005) one finds Chemotactic index data, which are given here for 15 compounds.

Each structure is given as a SMILES string.

Holding throughout (type): functional
Assay [1] has as its target T-cell surface glycoprotein CD4 (Homo sapiens) (UniProt P01730). Nature of the assay: Chemotactic activity of compound measured as function of concentration of 9 uM compared to peptide T,[DA1a]peptide T and amygdalin.
Assay [2] shares this target. In words: Chemotactic activity of compound measured as function of concentration of 10 uM compared to peptide T,[DA1a]peptide T and amygdalin.
For assay [3] the target is unchanged. Nature of the assay: Chemotactic activity of compound measured as function of concentration of 6 uM compared to peptide T,[DA1a]peptide T and amygdalin.
For assay [4] the target is unchanged. Nature of the assay: Chemotactic activity of compound measured as function of concentration of 11 uM compared to peptide T,[DA1a]peptide T and amygdalin.
Assay [5] has the same target. In words: Chemotactic activity of compound measured as function of concentration of 7 uM compared to peptide T,[DA1a]peptide T and amygdalin.
Assay [6] has the same target. In words: Chemotactic activity of compound measured as function of concentration of 8 uM compared to peptide T,[DA1a]peptide T and amygdalin.

Compound `CC(C)(C)C(O[C@@H]1O[C@@H](CO[C@@H]2O[C@@H](CO)[C@@H](O)[C@H](O)[C@@H]2O)[C@@H](O)[C@H](O)[C@@H]1O)c1ccccc1` (stereo not given in full) returned a Chemotactic index in assay [1] of 0.84.

With `COc1ccc(CO[C@@H]2O[C@@H](CO[C@@H]3O[C@@H](CO)[C@@H](O)[C@H](O)[C@@H]3O)[C@@H](O)[C@H](O)[C@@H]2O)c(OC)c1`, the Chemotactic index in assay [2] was 0.84.

In assay [3], `C#CC(O[C@@H]1O[C@@H](CO[C@@H]2O[C@@H](CO)[C@@H](O)[C@H](O)[C@@H]2O)[C@@H](O)[C@H](O)[C@@H]1O)c1ccccc1` (stereo not given in full) had a Chemotactic index of 0.79.

As to `O=C(O)[C@H](O[C@@H]1O[C@@H](CO[C@@H]2O[C@@H](CO)[C@@H](O)[C@H](O)[C@@H]2O)[C@@H](O)[C@H](O)[C@@H]1O)c1ccccc1`, the Chemotactic index in assay [1] is 0.71.

Regarding `N#CC(O[C@@H]1O[C@H](CO[C@@H]2O[C@H](CO)[C@@H](O)[C@H](O)[C@H]2O)[C@@H](O)[C@H](O)[C@H]1O)c1ccccc1` (single isomer, unassigned), the Chemotactic index in assay [2] stood at 0.63.

As for `C[C@H](N)C(=O)N[C@@H](CO)C(=O)N[C@H](C(=O)N[C@H](C(=O)N[C@H](C(=O)N[C@@H](CC(N)=O)C(=O)N[C@@H](Cc1ccc(O)cc1)C(=O)N[C@H](C(=O)O)[C@@H](C)O)[C@@H](C)O)[C@@H](C)O)[C@@H](C)O`, the Chemotactic index in assay [4] was 1.09.

Turning to `NC(=O)[C@H](O[C@@H]1O[C@@H](CO[C@@H]2O[C@@H](CO)[C@@H](O)[C@H](O)[C@@H]2O)[C@@H](O)[C@H](O)[C@@H]1O)c1ccccc1`, the Chemotactic index in assay [5] was determined as 0.84.

Compound `OC[C@@H]1O[C@@H](OC[C@@H]2O[C@@H](OCc3ccccc3)[C@@H](O)[C@@H](O)[C@@H]2O)[C@@H](O)[C@@H](O)[C@@H]1O` registered a Chemotactic index in assay [6] of 0.76.

On to `OC[C@@H]1O[C@@H](OC[C@@H]2O[C@@H](OCCc3ccccc3)[C@@H](O)[C@@H](O)[C@@H]2O)[C@@H](O)[C@@H](O)[C@@H]1O`, for which the Chemotactic index in assay [1] came out at 0.7.

As to `COc1ccc(CO[C@@H]2O[C@@H](CO[C@@H]3O[C@@H](CO)[C@@H](O)[C@H](O)[C@@H]3O)[C@@H](O)[C@H](O)[C@@H]2O)cc1`, in assay [2], the Chemotactic index was found to be 0.87.

`OC[C@@H]1O[C@@H](OC[C@@H]2O[C@@H](OCc3c4ccccc4cc4ccccc34)[C@@H](O)[C@@H](O)[C@@H]2O)[C@@H](O)[C@@H](O)[C@@H]1O` gave a Chemotactic index in assay [6] of 0.94.

In the case of `CC(O[C@@H]1O[C@@H](CO[C@@H]2O[C@@H](CO)[C@@H](O)[C@H](O)[C@@H]2O)[C@@H](O)[C@H](O)[C@@H]1O)c1ccccc1` (stereo not given in full), the Chemotactic index in assay [6] stood at 0.77.

In assay [3], `CCC(O[C@@H]1O[C@@H](CO[C@@H]2O[C@@H](CO)[C@@H](O)[C@H](O)[C@@H]2O)[C@@H](O)[C@H](O)[C@@H]1O)c1ccccc1` (stereo not given in full) came in with a Chemotactic index of 0.75.

As to `C[C@@H](N)C(=O)N[C@@H](CO)C(=O)N[C@H](C(=O)N[C@H](C(=O)N[C@H](C(=O)N[C@@H](CC(N)=O)C(=O)N[C@@H](Cc1ccc(O)cc1)C(=O)N[C@H](C(N)=O)[C@@H](C)O)[C@@H](C)O)[C@@H](C)O)[C@@H](C)O`, the Chemotactic index in assay [4] turned out to be 0.89.

The compound `OC[C@@H]1O[C@@H](OC[C@@H]2O[C@@H](OCc3ccccc3Br)[C@@H](O)[C@@H](O)[C@@H]2O)[C@@H](O)[C@@H](O)[C@@H]1O` gave a Chemotactic index in assay [2] of 0.94.
